Patent US12048685B2, “Transient receptor potential cation channel subfamily m member 8 (TRPM8) antagonists and methods of use” (Ora, Inc., priority 2015, dated 2024)
Where a name gives a salt, the structure may show the parent alone.

Legend:
[1] = Corneal sensitivity measured by Cochet Bonnet after topical dosing; assay type: in vivo, human
Description: (§1) A series of experiments were carried out assessing the clinical signs and symptoms of dry eye disease or severe dry eye disease using a commercially available TRPM8 antagonist, N-(2-Aminoethyl)-N-(4-(benzyloxy)-3-methoxybenzyl)thiophene-2-carboxamide hydrochloride, N-(2-Aminoethyl)-N-[[3-methoxy-4-(phenylmethoxy)phenyl]methyl]-2-thiophenecarboxamide hydrochloride (Sigma Aldrich M8-B hydrochloride (SML0893)), shown below as Compound I, at a concentration of 0.1% (vs placebo), administered unilaterally.
(§2) Post-dose, exposure to Menthol (ROHTO Hydra), as well as to an adverse environment (CAESM), was used to elicit symptomology in 3 patients with healthy eyes. Validated symptom scales were used to collect levels of discomfort secondary to the exposures (Ora Calibra™ Ocular Discomfort Questionnaire, Drop Comfort Questionnaire). A summary of the findings is presented below.
In a first set of experiments, the effect of Compound I on corneal sensitivity was examined. Subjects (shown by initials E-A, KJL, M-C) were dosed with 20 ul of Compound I (0.1%) or a placebo (BSS).

[2] = Ocular discomfort on exposure to a Controlled Adverse Environment (CAE); assay type: in vivo, human; details: CAE for 25 minutes, asked every 5 minutes, p<0.01, FIGS. 4A and B
Description: as §1, §2
The effect of CAE exposure after dosing with Compound I or placebo was examined. After dosing with Compound I or placebo, subjects were exposed to a Controlled Adverse Environment (CAE) for 25 minutes, in order to elicit symptomology similar in nature to dry eye symptoms. An Ocular Discomfort Questionnaire (0-4 scale) was asked every 5 minutes.

[3] = Ocular discomfort on exposure to Turbo-CAE after CAE (severe dry eye symptoms); assay type: in vivo, human; details: 15 minutes of Turbo-CAE after 25-minute CAE, p<0.01, FIGS. 5A and B
Description: as §1, §2
Next, the effect of Turbo-CAE exposure after dosing with Compound I or placebo was examined. After 25-minute Controlled Adverse Environment (CAE) exposure, subjects were exposed to 15 minutes of Turbo-CAE, in order to elicit symptomology similar in nature to severe dry eye symptoms. An Ocular Discomfort Questionnaire (0-4 scale) was asked every 5 minutes.

TRPM-8 channels = molecular target: T1, TRPM-8 channels (Homo sapiens, UniProt Q7Z2W7); experiment: Post-menthol treatment symptoms (Drop Discomfort) after dosing, menthol-containing eyedrop (ROHTO Hydra); assay type: in vivo
T1 construct: from tissue; host or cells: eye (ocular surface) of living human subjects
T1 sequence (Q7Z2W7 whole entry): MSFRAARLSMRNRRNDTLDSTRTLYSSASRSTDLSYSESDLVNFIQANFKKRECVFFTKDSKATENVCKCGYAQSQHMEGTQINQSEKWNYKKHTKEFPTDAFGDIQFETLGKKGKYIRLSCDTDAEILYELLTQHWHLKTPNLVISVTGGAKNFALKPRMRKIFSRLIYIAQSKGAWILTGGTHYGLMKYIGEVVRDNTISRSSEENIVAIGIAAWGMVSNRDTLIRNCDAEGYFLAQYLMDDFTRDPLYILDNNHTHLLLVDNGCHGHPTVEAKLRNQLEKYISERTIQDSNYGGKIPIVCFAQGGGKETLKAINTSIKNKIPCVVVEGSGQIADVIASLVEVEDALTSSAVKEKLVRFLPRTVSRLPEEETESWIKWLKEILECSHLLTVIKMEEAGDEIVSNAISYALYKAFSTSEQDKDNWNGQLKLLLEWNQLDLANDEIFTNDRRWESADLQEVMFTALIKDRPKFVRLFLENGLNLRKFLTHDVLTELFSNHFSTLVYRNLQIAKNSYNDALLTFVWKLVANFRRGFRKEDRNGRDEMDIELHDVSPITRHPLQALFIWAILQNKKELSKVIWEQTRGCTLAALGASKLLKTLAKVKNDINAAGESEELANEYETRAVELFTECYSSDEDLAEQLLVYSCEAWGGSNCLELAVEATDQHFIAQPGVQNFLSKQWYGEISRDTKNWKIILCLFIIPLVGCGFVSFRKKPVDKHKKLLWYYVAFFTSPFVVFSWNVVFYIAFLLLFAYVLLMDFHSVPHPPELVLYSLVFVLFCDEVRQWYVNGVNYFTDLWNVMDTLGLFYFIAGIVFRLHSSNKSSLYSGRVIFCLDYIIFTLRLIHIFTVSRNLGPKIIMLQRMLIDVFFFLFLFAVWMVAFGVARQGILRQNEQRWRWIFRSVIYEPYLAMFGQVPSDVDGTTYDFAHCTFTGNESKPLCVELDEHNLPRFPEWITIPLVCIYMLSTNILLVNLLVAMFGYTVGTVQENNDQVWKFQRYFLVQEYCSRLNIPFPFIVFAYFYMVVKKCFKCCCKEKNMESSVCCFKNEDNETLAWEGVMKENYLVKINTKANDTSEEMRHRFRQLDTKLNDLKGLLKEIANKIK
Text: Post-dose, exposure to Menthol (ROHTO Hydra), as well as to an adverse environment (CAESM), was used to elicit symptomology in 3 patients with healthy eyes. Validated symptom scales were used to collect levels of discomfort secondary to the exposures (Ora Calibra™ Ocular Discomfort Questionnaire, Drop Comfort Questionnaire). A summary of the findings is presented below. The effect of topical menthol application after dosing with Compound I or placebo was examined. After dosing with Compound I or placebo, 1 drop menthol-containing OTC eyedrop were administered bilaterally (ROHTO Hydra). Menthol is known to act upon TRPM-8 channels, effectively causing neural activity similar in nature to exposure to cold temperature. As such, menthol was used to induce a “cooling” symptom. […] Baseline (pre-menthol) symptoms were “0” for each eye, for all 3 subjects (data not shown).

Balb/C mice = details: 15 minutes and 24 hours post TRPM8 antagonist dose (0.01%, 0.05%, 0.10%), immediately post menthol dose, water control, FIG. 6
Description: Behavioral endpoints, e.g. blinking for balb/cs nice, was tested. […] Treatment of the mice with water was used as a control. TRPM8 antagonist was used at concentrations of 0.01%, 0.05% and 0.10%.

Molecule | effect on corneal sensitivity ([1]; 20 ul of 0.1%, unilateral, vs placebo (BSS), 3 subjects with healthy eyes, Cochet Bonnet, FIG. 2) | decrease in sensitivity ([1]; Subject, 70 mm to 65 mm, 20 ul of 0.1%) [mm] | changes in sensitivity ([1]; Subjects E-A and M-C, 20 ul of 0.1%) | difference in corneal sensitivity pre- to post-dose ([1]; p=0.42, 3 subjects) | symptom scores (Ocular Discomfort Questionnaire, 0-4 scale) vs placebo [2] | symptom scores (Ocular Discomfort Questionnaire, 0-4 scale) vs placebo [3] | action of menthol (cooling symptom) (TRPM-8 channels; 0.1% dosed before 1 drop menthol-containing OTC eyedrop bilaterally, FIGS. 3A and B) | subject-reported symptom scores (Drop Discomfort, 0-10 scale) vs placebo (TRPM-8 channels; post-menthol, treated eye vs placebo eye, p<0.01, 3 subjects) | blink rate per minute (Balb/C mice)
COc1cc(CN(CCN)C(=O)c2cccs2)ccc1OCc1ccccc1 [Compound I, N-(2-Aminoethyl)-N-(4-(benzyloxy)-3-methoxybenzyl)thiophene-2-carboxamide hydrochloride] | minimal effect | 5 | no detectable changes | No significant difference | significantly lower symptom scores than placebo | significantly lower symptom scores than placebo | effectively block the action of menthol | significantly lower symptom scores than placebo | 
CC1CCC(C(C)C)C(O)C1 (stereo not shown) [menthol] |  |  |  |  |  |  |  |  | increase in blink rate
N-(2-Aminoethyl)-N-(4-(benzyloxy)-3-methoxybenzyl)thiophene-2-carboxamide hydrochloride [Compound I] |  |  |  |  |  |  |  |  | reproducibly blocked
